{"source": "paper PMC7156458", "about": "“Synthetic biology based construction of biological activity-related library of fungal decalin-containing diterpenoid pyrones” (Nature Communications, 2020)", "type_in_all_cases": "cell-based", "key": {"[1]": {"system": "MAGI cells", "experiment": "cytotoxicity in the anti-HIV assay (CC50)", "conditions": "single determinations", "from_the_text": "(§1) We examined the inhibitory activities of DDPs against various species of bacteria (both gram-negative and gram-positive bacteria), fungi and viruses. […] In contrast, preliminary screening of the DDPs for anti-viral agents with hepatitis B virus (HBV), measles virus (MV), Epstein-Barr virus (EBV), herpes simplex virus (HSV) and human immunodeficiency virus-1 (HIV-1) indicated their selective inhibition of HIV.\nPolicy information about cell lines […]\nHeLa-CD4-LTR/ !-galactosidase (MAGI) cells provided by Dr. J. Overbaugh through the NIH AIDS Research and Reference […]\nMAGI cells were authenticated by the NIH.\nMycoplasma contamination All the cell lines tested negative for mycoplasma contamination.\nCommonly misidentified lines No commonly mis-identified cell lines. […]"}, "[2]": {"system": "DL1 cells", "experiment": "cytotoxicity in Drosophila DL1 cells", "conditions": "DL1 cells; for % viability, viability 1: replicate 1, relative to DMSO 1%; for % viability, viability 2: replicate 2, relative to DMSO 1%; for IC50: cytotoxicity", "experimental": "(§2) We screened the DDPs on the Drosophila assay system for cytotoxicity, inhibitory activity of innate immune signalling and insecticidal activity. The cytotoxicity of the DDPs was evaluated using two cell lines, embryonic macrophage-derived DL1 cells[58]–[60] and larval blood cell-derived l(2)mbn cells, and their IC50 values are listed in Supplementary Table 23."}, "[3]": {"system": "l(2)mbn cells", "experiment": "cytotoxicity in Drosophila l(2)mbn cells", "conditions": "for Luminescence Raw1: replicate 1; for % viability, viability 1: replicate 1, relative to DMSO 1%; for Luminescence Raw2: replicate 2; for % viability, viability 2: replicate 2, relative to DMSO 1%", "experimental": "as §2"}, "[4]": {"system": "human immunodeficiency virus-1 (HIV-1)", "experiment": "anti-HIV MAGI assay", "conditions": "Human immunodeficiency virus 1, MAGI, read-out: Avg. EC50 (nM), anti-HIV; average of numeric determinations", "from_the_text": "as §1"}}, "note": "Where two headings read alike, the source gives them in different places."}
{"smiles": "C=C1CCC2C(C)(CCC=C(C)C)C(O)CCC2(C)C1Cc1c(OC)oc(C)c(C)c1=O", "note": "(stereo not shown) [Compound 15, viridoxin A hydrolysate]", "values": [{"measurement": "Cytotoxicity", "setting": "[1]", "result": ">10", "unit": "µM"}, {"measurement": "Luminescence Raw1", "setting": "[2]; 0.04 µM, replicate 1", "result": 2784909}, {"measurement": "% viability, viability 1", "setting": "[2]; 0.04 µM", "result": 203.06, "unit": "%"}, {"measurement": "Luminescence Raw2", "setting": "[2]; 0.04 µM, replicate 2", "result": 3009267}, {"measurement": "% viability, viability 2", "setting": "[2]; 0.04 µM", "result": 219.419, "unit": "%"}, {"measurement": "Luminescence Raw1", "setting": "[2]; 0.2 µM, replicate 1", "result": 2743429}, {"measurement": "% viability, viability 1", "setting": "[2]; 0.2 µM", "result": 200.035, "unit": "%"}, {"measurement": "Luminescence Raw2", "setting": "[2]; 0.2 µM, replicate 2", "result": 2853442}, {"measurement": "% viability, viability 2", "setting": "[2]; 0.2 µM", "result": 208.057, "unit": "%"}, {"measurement": "Luminescence Raw1", "setting": "[2]; 1 µM, replicate 1", "result": 2896366}, {"measurement": "% viability, viability 1", "setting": "[2]; 1 µM", "result": 211.186, "unit": "%"}, {"measurement": "Luminescence Raw2", "setting": "[2]; 1 µM, replicate 2", "result": 3157521}, {"measurement": "% viability, viability 2", "setting": "[2]; 1 µM", "result": 230.228, "unit": "%"}, {"measurement": "Luminescence Raw1", "setting": "[2]; 4 µM, replicate 1", "result": 726344}, {"measurement": "% viability, viability 1", "setting": "[2]; 4 µM", "result": 52.9608, "unit": "%"}, {"measurement": "Luminescence Raw2", "setting": "[2]; 4 µM, replicate 2", "result": 1230470}, {"measurement": "% viability, viability 2", "setting": "[2]; 4 µM", "result": 89.7188, "unit": "%"}, {"measurement": "Luminescence Raw1", "setting": "[2]; 10 µM, replicate 1", "result": 281027}, {"measurement": "% viability, viability 1", "setting": "[2]; 10 µM", "result": 20.4909, "unit": "%"}, {"measurement": "Luminescence Raw2", "setting": "[2]; 10 µM, replicate 2", "result": 344848}, {"measurement": "% viability, viability 2", "setting": "[2]; 10 µM", "result": 25.1443, "unit": "%"}, {"measurement": "Luminescence Raw1", "setting": "[2]; 20 µM, replicate 1", "result": 282109}, {"measurement": "% viability, viability 1", "setting": "[2]; 20 µM", "result": 20.5698, "unit": "%"}, {"measurement": "Luminescence Raw2", "setting": "[2]; 20 µM, replicate 2", "result": 296532}, {"measurement": "% viability, viability 2", "setting": "[2]; 20 µM", "result": 21.6214, "unit": "%"}, {"measurement": "IC50", "setting": "[2]; average±SEM", "result": "6.1 ± 1.57", "unit": "µM"}, {"measurement": "IC50", "setting": "[2]; read-out: IC50 (1), replicate 1", "result": 4.53, "unit": "µM"}, {"measurement": "IC50", "setting": "[2]; read-out: IC50 (2), replicate 2", "result": 7.66, "unit": "µM"}, {"measurement": "IC50", "setting": "[2]; read-out: IC50 Average, average of two replicates", "result": 6.1, "unit": "µM"}, {"measurement": "Luminescence Raw1", "setting": "[3]; 0.04 µM", "result": 5571583}, {"measurement": "% viability, viability 1", "setting": "[3]; 0.04 µM", "result": 88.7303, "unit": "%"}, {"measurement": "Luminescence Raw2", "setting": "[3]; 0.04 µM", "result": 5591430}, {"measurement": "% viability, viability 2", "setting": "[3]; 0.04 µM", "result": 89.0464, "unit": "%"}, {"measurement": "Luminescence Raw1", "setting": "[3]; 0.2 µM", "result": 6221854}, {"measurement": "% viability, viability 1", "setting": "[3]; 0.2 µM", "result": 99.0862, "unit": "%"}, {"measurement": "Luminescence Raw2", "setting": "[3]; 0.2 µM", "result": 5568336}, {"measurement": "% viability, viability 2", "setting": "[3]; 0.2 µM", "result": 88.6786, "unit": "%"}, {"measurement": "Luminescence Raw1", "setting": "[3]; 1 µM", "result": 6094827}, {"measurement": "% viability, viability 1", "setting": "[3]; 1 µM", "result": 97.0632, "unit": "%"}, {"measurement": "Luminescence Raw2", "setting": "[3]; 1 µM", "result": 5439516}, {"measurement": "% viability, viability 2", "setting": "[3]; 1 µM", "result": 86.6271, "unit": "%"}, {"measurement": "Luminescence Raw1", "setting": "[3]; 4 µM", "result": 5005443}, {"measurement": "% viability, viability 1", "setting": "[3]; 4 µM", "result": 79.7142, "unit": "%"}, {"measurement": "Luminescence Raw2", "setting": "[3]; 4 µM", "result": 4514031}, {"measurement": "% viability, viability 2", "setting": "[3]; 4 µM", "result": 71.8882, "unit": "%"}, {"measurement": "Luminescence Raw1", "setting": "[3]; 10 µM", "result": 362955}, {"measurement": "% viability, viability 1", "setting": "[3]; 10 µM", "result": 5.78, "unit": "%"}, {"measurement": "Luminescence Raw2", "setting": "[3]; 10 µM", "result": 319326}, {"measurement": "% viability, viability 2", "setting": "[3]; 10 µM", "result": 5.085, "unit": "%"}, {"measurement": "Luminescence Raw1", "setting": "[3]; 20 µM", "result": 109116}, {"measurement": "% viability, viability 1", "setting": "[3]; 20 µM", "result": 1.738, "unit": "%"}, {"measurement": "Luminescence Raw2", "setting": "[3]; 20 µM", "result": 229184}, {"measurement": "% viability, viability 2", "setting": "[3]; 20 µM", "result": 3.65, "unit": "%"}, {"measurement": "IC50", "setting": "[3]; cytotoxicity, average±SEM", "result": "5.23 ± 0.19", "unit": "µM"}, {"measurement": "IC50", "setting": "[3]; read-out: IC50 (1), cytotoxicity, replicate 1", "result": 5.42, "unit": "µM"}, {"measurement": "IC50", "setting": "[3]; read-out: IC50 (2), cytotoxicity, replicate 2", "result": 5.04, "unit": "µM"}, {"measurement": "IC50", "setting": "[3]; read-out: IC50 Average, cytotoxicity, average of two replicates", "result": 5.23, "unit": "µM"}, {"measurement": "EC50", "setting": "[4]", "result": 8.51, "unit": "nM"}]}
